pIC50: −log10 of the molar value. Values joined by “and” are separate entries in the source; they are usually repeats but may differ in a detail not shown here. Equal values may be shown once. Where a name gives a salt, the structure may show the parent alone. Read-outs that look alike come from different tables or passages of the source.
Tests used:
[1] = test system: mouse bone-marrow derived macrophages; conditions: for pIC50: read-out: mCSF driven proliferation BMDM (Mouse) - IC-50, BrDU incorporation, CSF-1 stimulated, 30 hrs culture; for IC50: Mus musculus, BMDM, 30 h, read-out: mCSF driven proliferation BMDM (Mouse) - IC-50 (μM), BrDU incorporation, CSF-1 stimulated, 30 hrs culture
[2] = target: CSF-1R (c-fms) (Homo sapiens (Human), UniProt P07333); assay: Fluorescence polarization competition immunoassay (1 nM c-fms; peptide Pi assay); format: biochemical; conditions: read-out: 1 nM c-fms; peptide Pi assay - IC-50
Method: Fluorescence Polarization Competition Immunoassay
The kinase reaction was initiated by adding 1 μL of 10 mM ATP in assay buffer. […] Positive and negative control wells were included on each plate, where 4% DMSO in assay buffer was substituted for the compound; in addition, positive control wells received 1.2 μL of 50 mM EDTA (ethylenediaminetetraacetic acid) before the start of the reaction.
The plates were covered, incubated for 30 min at room temperature, and the fluorescence polarization was read on an Analyst plate reader (Molecular Devices). […] Reported IC50 values are the mean of three of at least three determinations.

[3] = target: c-fms (Homo sapiens (Human), UniProt P07333); assay: 10 nM c-fms auto-Pi assay; format: biochemical; conditions: cell printed as 0.05@0.002–2; read-out: 10 nM c-fms auto-Pi assay - IC-50
c-fms, sequence (P07333 20-972): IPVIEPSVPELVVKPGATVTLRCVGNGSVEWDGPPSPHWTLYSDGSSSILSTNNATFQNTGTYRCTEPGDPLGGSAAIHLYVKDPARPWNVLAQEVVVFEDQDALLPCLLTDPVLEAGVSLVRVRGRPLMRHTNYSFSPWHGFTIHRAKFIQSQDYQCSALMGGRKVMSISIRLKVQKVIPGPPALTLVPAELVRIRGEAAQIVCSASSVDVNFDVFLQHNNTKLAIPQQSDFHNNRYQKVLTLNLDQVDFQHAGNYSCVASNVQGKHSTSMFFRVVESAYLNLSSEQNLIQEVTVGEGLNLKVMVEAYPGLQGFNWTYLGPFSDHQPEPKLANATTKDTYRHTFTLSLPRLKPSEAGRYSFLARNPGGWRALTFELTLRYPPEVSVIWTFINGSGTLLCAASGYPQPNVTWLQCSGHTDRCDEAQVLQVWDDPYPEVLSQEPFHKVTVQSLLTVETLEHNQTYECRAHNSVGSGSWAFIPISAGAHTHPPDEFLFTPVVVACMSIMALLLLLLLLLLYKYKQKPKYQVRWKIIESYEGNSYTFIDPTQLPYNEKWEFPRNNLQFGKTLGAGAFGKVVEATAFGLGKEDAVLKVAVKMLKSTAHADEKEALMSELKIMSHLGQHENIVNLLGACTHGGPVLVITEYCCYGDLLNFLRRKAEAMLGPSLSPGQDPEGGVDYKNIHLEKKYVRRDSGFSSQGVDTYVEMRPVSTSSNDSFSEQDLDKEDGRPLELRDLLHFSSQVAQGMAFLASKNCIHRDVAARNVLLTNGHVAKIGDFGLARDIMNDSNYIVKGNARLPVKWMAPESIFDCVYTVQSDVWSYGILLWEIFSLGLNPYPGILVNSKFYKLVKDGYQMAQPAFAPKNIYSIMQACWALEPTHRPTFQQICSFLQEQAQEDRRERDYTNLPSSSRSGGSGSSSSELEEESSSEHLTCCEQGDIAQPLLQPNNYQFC

CSF-1R (c-fms), sequence (P07333 20-972): as above

Structure (SMILES)	pIC50 [2]	IC50 [1] [µM]	also measured
COCCNC(C)(C)c1ccc(NC(=O)c2nc(C#N)c[nH]2)c(C2=CCC(C)(C)CC2)c1 [Example 20, 4-Cyano-1H-imidazole-2-carboxy-lic acid{2-(4,4-di-methyl-cyclo-hex-1-enyl)-4-[1-(2-meth-oxy-ethyl-amino)-1-methyl-ethyl]-phenyl}-amide]	–	–	pIC50 [1]: 8.33 and 8.32
CN1CCN(C(C)(C)c2ccc(NC(=O)c3nc(C#N)c[nH]3)c(C3=CCC(C)(C)CC3)c2)CC1 [Example 23, 4-Cyano-1H-imidazole-2-carboxy-lic acid{2-(4,4-di-methyl-cyclohex-1-enyl)-4-[1-meth-yl-1-(4-methyl-piperazin-1-yl)-ethyl]-phe-nyl}-amide]	–	–	pIC50 [1]: 8.48
N#Cc1c[nH]c(C(=O)Nc2ccc(CCS(=O)(=O)N3CCOCC3)cc2C2=CCCCC2)n1 [Example 26, 4-Cyano-1H-imidazole-2-carboxylic acid {2-cyclohex-1-enyl-4-[2-(morpholine-4-sulfonyl)-ethyl]-phenyl}-amide]	–	–	pIC50 [1]: 8.23
Cc1nc(C(=O)Nc2ccc(CCN3CCOCC3)cc2C2=CCCCC2)[nH]c1C#N [Example 33, 5-Cyano-4-methyl-1H-imidazole-2-carboxylic acid [2-cyclohex-1-enyl-4-(2-morpholin-4-yl-ethyl)-phenyl]-amide hydrochloride]	< 7.22	–	–
C[S+]([O-])c1ncc(C(=O)Nc2ccc(CCN3CCOCC3)cc2C2=CCCCC2)[nH]1 (centres unmarked) [Example 35, 2-Methanesulfinyl-3H-imidazole-4-carboxylic acid [2-cyclohex-1-enyl-4-(2-morpholin-4-yl-ethyl)-phenyl]-amide trifluoroacetic acid salt]	< 6.30	–	–
CS(=O)(=O)c1ncc(C(=O)Nc2ccc(CCN3CCOCC3)cc2C2=CCCCC2)[nH]1 [Example 36, 2-Methanesulfonyl-3H-imidazole-4-carboxylic acid [2-cyclohex-1-enyl-4-(2-morpholin-4-yl-ethyl)-phenyl]-amide hydrochloride]	< 6.30	–	–
O=C(Nc1ccc(CCN2CCOCC2)cc1C1=CCCCC1)c1nc(Cl)c(Cl)[nH]1 [Example 38, 4,5-Dichloro-1H-imidazole-2-carboxylic acid [2-cyclohex-1-enyl-4-(2-morpholin-4-yl-ethyl)-phenyl]-amide trifluoroacetic acid salt]	< 7.22	–	–
O=C(Nc1ccc(CCN2CCOCC2)cc1C1=CCCCC1)c1nc2ccccc2[nH]1 [Example 39, 1H-Benzoimidazole-2-carboxylic acid [2-cyclohex-1-enyl-4-(2-morpholin-4-yl-ethyl)-phenyl]-amide trifluoroacetic acid salt]	< 7.22	–	–
O=C(Nc1ccc(CCN2CCOCC2)cc1C1=CCCCC1)c1ncc(Cl)[nH]1 [Example 41, 5-Chloro-1H-imidazole-2-carboxylic acid [2-cyclohex-1-enyl-4-(2-morpholin-4-yl-ethyl)-phenyl]-amide hydrochloride]	–	0.321	–
N#Cc1cnc(C(=O)Nc2ccc(CN3CCOCC3)cc2C2=CCCCC2)[nH]1 [Example 44, 5-Cyano-1H-imidazole-2-carboxylic acid (2-cyclohex-1-enyl-4-morpholin-4-ylmethyl-phenyl)-amide hydrochloride]	–	0.0164	pIC50 ([1]; hydrochloride): 7.84
CC1(C)CC=C(c2cc(CC(=O)NCCCO)ccc2NC(=O)c2ncc(C#N)[nH]2)CC1 [Example 54, 5-Cyano-1H-imidazole-2-carboxylic acid {2-(4,4-dimethyl-cyclohex-1-enyl)-4-[(3-hydroxy-propylcarbamoyl)-methyl]-phenyl}-amide]	–	> 0.1	–
CCN(C)CCCc1ccc(NC(=O)c2ccc(C#N)o2)c(N2CCC(C)CC2)c1 [Example 55, 5-Cyano-furan-2-carboxylic acid [4-[3-(ethyl-methyl-amino)-propyl]-2-(4-methyl-piperidin-1-yl)-phenyl]-amide]	–	–	pIC50 [3]: 7.30
CC1(C)CC=C(c2cc(C(C)(C)N3CCN(CC(=O)O)CC3)ccc2NC(=O)c2nc(C#N)c[nH]2)CC1 [Example 64, (4-{1-[4-[(4-Cyano-1H-imidazole-2-carbonyl)-amino]-3-(4,4-dimethyl-cyclohex-1-enyl)-phenyl]-1-methyl-ethyl}-piperazin-1-yl)-acetic acid, sodium salt]	–	0.2	–
CC1(C)CC=C(c2cc(C(C)(C)NCCO)ccc2NC(=O)c2nc(C#N)c[nH]2)CC1 [Example 65, 4-Cyano-1H-imidazole-2-carboxylic acid {2-(4,4-dimethyl-cyclohex-1-enyl)-4-[1-(2-hydroxy-ethylamino)-1-methyl-ethyl]-phenyl}-amide hydrochloride]	–	0.0081	–
CC1(C)CC=C(c2cc(C(C)(C)CN3C[C@@H]4OC(C)(C)O[C@@H]4C3)ccc2NC(=O)c2nc(C#N)c[nH]2)CC1 [Example 140, 4-Cyano-1H-imidazole-2-carboxylic acid {2-(4,4-dimethyl-cyclohex-1-enyl)-4-[2-(2,2-dimethyl-tetrahydro-[1,3]dioxolo[4,5-c]pyrrol-5-yl)-1,1-dimethyl-ethyl]-phenyl}-amide]	< 7.00	0.031	–
